In this assay the test system is P388 leukemia ip, CD2F1 mice, survival T/C. Description: NCI In Vivo Anticancer Drug Screen. Data for tumor model P388 Leukemia (intraperitoneal) in CD2F1 (CDF1) mice. Conditions: endpoint: median survival time, higher = longer survival. In outline:
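Mice carrying the transplanted tumor received test compound or vehicle. Survival was recorded in each group, and the value is the treated-group measurement divided by that of the vehicle-treated control group.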

Where [1] appears, read: dose: 50.0 mg/kg/injection, schedule: Q01DX005 (ip), vehicle: saline with Tween-80.
The mark [2] stands for this setting: dose: 100.0 mg/kg/injection, schedule: Q01DX005 (ip), vehicle: saline with Tween-80.
Setting [3] is: dose: 60.0 mg/kg/injection, schedule: Q01DX005 (ip), vehicle: saline with Tween-80.
Where [4] appears, read: dose: 120.0 mg/kg/injection, schedule: Q01DX005 (ip), vehicle: saline with Tween-80.
[5] abbreviates: dose: 240.0 mg/kg/injection, schedule: Q01DX005 (ip), vehicle: saline with Tween-80.
[6] abbreviates: dose: 100.0 mg/kg/injection, schedule: Q04DX002 (ip), vehicle: saline.
Where [7] appears, read: dose: 100.0 mg/kg/injection, schedule: Q01DX001 (ip), vehicle: Klucel (hydroxypropylcellulose) (HPC).
Where [8] appears, read: dose: 200.0 mg/kg/injection, schedule: Q01DX001 (ip), vehicle: Klucel (hydroxypropylcellulose) (HPC).
The mark [9] stands for this setting: dose: 400.0 mg/kg/injection, schedule: Q01DX001 (ip), vehicle: Klucel (hydroxypropylcellulose) (HPC).
The mark [10] stands for this setting: dose: 200.0 mg/kg/injection, schedule: Q01DX005 (ip), vehicle: saline with Tween-80.
[11] abbreviates: dose: 50.0 mg/kg/injection, schedule: Q01DX009 (ip), vehicle: saline.
[12] abbreviates: dose: 100.0 mg/kg/injection, schedule: Q01DX009 (ip), vehicle: saline with Tween-80.
The mark [13] stands for this setting: dose: 200.0 mg/kg/injection, schedule: Q01DX009 (ip), vehicle: saline with Tween-80.
Setting [14] is: dose: 50.0 mg/kg/injection, schedule: Q01DX005 (ip), vehicle: Klucel (hydroxypropylcellulose) (HPC).
[15] abbreviates: dose: 100.0 mg/kg/injection, schedule: Q01DX005 (ip), vehicle: Klucel (hydroxypropylcellulose) (HPC).
Where [16] appears, read: dose: 50.0 mg/kg/injection, schedule: Q01DX009 (ip), vehicle: saline with Tween-80.
Where [17] appears, read: dose: 200.0 mg/kg/injection, schedule: Q01DX005 (ip), vehicle: Klucel (hydroxypropylcellulose) (HPC).

Where “and” joins values, the source holds several entries; their conditions need not be identical. Equal entries are not always repeated. Toxic doses and inconclusive results are not listed.

Take `CC(C)NC(=O)OCc1c(COC(=O)NC(C)C)c2n(c1-c1ccc(Cl)c(Cl)c1)CCS2=O` (stereo unspecified): the T/C reads like this: (dose: 25.0 mg/kg/injection, schedule: Q01DX005 (ip), vehicle: saline with Tween-80) 100 % of control; under setting [1], 97 % of control; under setting [2], 87 % of control.

Take `COC(=O)c1cc(-c2ccc(O)c(OC)c2)n2c(NC(=O)Nc3ccc(Cl)cc3)nnc2n1`: the T/C under setting [3] is 91 % of control, the T/C under setting [4] is 91 % of control and the T/C under setting [5] was 91 % of control.

In the case of `COc1cc(C2C(C#N)=CNc3nc(N)nc(N)c32)cc(OC)c1OC` (stereo unspecified), the T/C under setting [3] is 120 % of control.

For `CCOP(=O)(O)SP(=O)(O)OCC.CCOP(=O)(O)SP(=O)(O)OCC.[Mn]`, the T/C is 117 % of control (dose: 50.0 mg/kg/injection, schedule: Q04DX002 (ip), vehicle: saline); 113 % of control and 117 % of control under setting [6].

Take `Cn1c(=O)nc2n(-c3ccc(Cl)c(Cl)c3)c3ccccc3nc-2c1=O`: the T/C under setting [7] is 107 % of control, the T/C under setting [8] is 98 % of control and the T/C under setting [9] is 94 % of control.

As to `c1ccc2c(c1)Sc1ccccc1C2=C1c2ccccc2Sc2ccccc21`, the T/C under setting [1] was 88 % of control, the T/C under setting [2] was 90 % of control and the T/C under setting [10] was 88 % of control.

For the molecule `COc1cc2c(cc1OC)C1C(C)c3ccc(OC)c(OC)c3CN1CC2` (stereo unspecified), the T/C was 88 % of control (dose: 12.5 mg/kg/injection, schedule: Q01DX009 (ip), vehicle: saline); 104 % of control (dose: 25.0 mg/kg/injection, schedule: Q01DX009 (ip), vehicle: saline); 107 % of control under setting [11]; 93 % of control (dose: 50.0 mg/kg/injection, schedule: Q04DX003 (ip), vehicle: distilled water + Tween-80); 87 % of control (dose: 100.0 mg/kg/injection, schedule: Q04DX003 (ip), vehicle: distilled water + Tween-80); 87 % of control (dose: 200.0 mg/kg/injection, schedule: Q04DX003 (ip), vehicle: distilled water + Tween-80). Also, the T/C was 94 % of control (dose: 400.0 mg/kg/injection, schedule: Q01DX009 (ip), vehicle: saline) and 91 % of control (dose: 400.0 mg/kg/injection, schedule: Q04DX003 (ip), vehicle: distilled water + Tween-80).

For `C/C(=N\N(C)C)C1=C(O)C(C(C)C)NC1=O` (stereo unspecified), the T/C is 100 % of control under setting [3], 105 % of control under setting [4] and 98 % of control under setting [5].

Take `CCNCc1cc(Nc2nc(NC3CCC(N(C)C)CC3)c3ccccc3n2)ccc1OC` (stereo unspecified): the T/C (dose: 5.0 mg/kg/injection, schedule: Q01DX009 (ip), vehicle: saline sonified) is 100 % of control; the T/C (dose: 10.0 mg/kg/injection, schedule: Q01DX009 (ip), vehicle: saline sonified) was 109 % of control; the T/C (dose: 20.0 mg/kg/injection, schedule: Q01DX009 (ip), vehicle: saline sonified) is 113 % of control.

Consider `C[N-]N(C)C(=O)[S-].C[N-]N(C)C(=O)[S-].C[N-]N(C)C(=O)[S-].[Co]`, for which the T/C is 103 % of control (dose: 25.0 mg/kg/injection, schedule: Q04DX003 (ip), vehicle: saline with Tween-80) and 103 % of control (dose: 50.0 mg/kg/injection, schedule: Q04DX003 (ip), vehicle: saline with Tween-80).

For `COc1cc(OC)c2c(c1)C(=O)[C@]1(C)C3(C)OC(=O)C(c4ccccc43)[C@]21C` (stereo partly specified), the T/C was 102 % of control under setting [7], 100 % of control under setting [8] and 105 % of control under setting [9].

Turning to `CCOC(=O)COc1cc2c(cc1C(C)c1cc(OC)c(OC)c(OC)c1)OCO2` (stereo unspecified), the T/C was 100 % of control under setting [1], 105 % of control under setting [2] and 99 % of control under setting [10].

On to `CC1OC(OCC2OC(OCCc3ccc(O)c(O)c3)C(O)C(OC3OC(C)C(O)C(O)C3O)C2O)C(O)C(O)C1O` (stereo unspecified) (tested in a mixture with another compound), for which the T/C (dose: 9.5 mg/kg/injection, schedule: Q01DX009 (ip), vehicle: saline) is 105 % of control; the T/C (dose: 19.0 mg/kg/injection, schedule: Q01DX009 (ip), vehicle: saline) is 103 % of control; the T/C (dose: 38.0 mg/kg/injection, schedule: Q01DX009 (ip), vehicle: saline) was 112 % of control; the T/C (dose: 76.0 mg/kg/injection, schedule: Q01DX009 (ip), vehicle: saline) was 103 % of control.

Take `O=C(NCCN1CCC(n2c(=O)[nH]c3cc(Cl)ccc32)CC1)c1ccc(F)cc1`: the T/C under setting [1] was 95 % of control, the T/C under setting [2] is 88 % of control and the T/C under setting [10] was 90 % of control.

Regarding `CC(=O)[C@H]1CC[C@H]2[C@@H]3C[C@H](C)C4=CC(=O)CC[C@]4(C)[C@H]3C(=O)C[C@]12C`, the T/C reads like this: under setting [12], 100 % of control; under setting [13], 109 % of control; (dose: 400.0 mg/kg/injection, schedule: Q01DX009 (ip), vehicle: saline with Tween-80) 104 % of control.

Turning to `COc1c(OCC(O)CN2CCCCC2)c2c(C)coc2c2ccoc12` (stereo unspecified), the T/C is, setting by setting: under setting [14], 100 % of control; under setting [15], 96 % of control.

On to `C[C@H]1COC(c2ccccn2)=N1`, for which the T/C (dose: 60.0 mg/kg/injection, schedule: Q01DX005 (ip), vehicle: saline) is 105 % of control; the T/C (dose: 120.0 mg/kg/injection, schedule: Q01DX005 (ip), vehicle: saline) was 106 % of control; the T/C (dose: 240.0 mg/kg/injection, schedule: Q01DX005 (ip), vehicle: saline) is 96 % of control.

For `CCC1(c2ccnc3cc(Cl)ccc23)C(=O)NC(=O)NC1=O`, the T/C is 100 % of control (dose: 50.0 mg/kg/injection, schedule: Q01DX009 (ip), vehicle: distilled water + alcohol); 98 % of control (dose: 100.0 mg/kg/injection, schedule: Q01DX009 (ip), vehicle: distilled water + alcohol); 99 % of control (dose: 200.0 mg/kg/injection, schedule: Q01DX009 (ip), vehicle: distilled water + alcohol).

Take `N#C/C(=C\C(Cl)=C/c1ccccc1)C(N)=S`: the T/C reads like this: under setting [11], 103 % of control; (dose: 100.0 mg/kg/injection, schedule: Q01DX009 (ip), vehicle: saline) 100 % of control.

Regarding `CC(=O)SC12CCCN1C(=O)C1CCCN1C2=O` (stereo unspecified), the T/C by setting is: under setting [6], 100 % of control; (dose: 200.0 mg/kg/injection, schedule: Q04DX002 (ip), vehicle: saline) 111 % of control; (dose: 400.0 mg/kg/injection, schedule: Q04DX002 (ip), vehicle: saline) 117 % of control.

For the molecule `NNC(=O)C(=O)N/N=C(\CC1(O)C(=O)Nc2ccccc21)c1ccccc1O` (stereo unspecified), the T/C reads like this: under setting [1], 104 % of control; under setting [2], 98 % of control; under setting [10], 103 % of control.

In the case of `O=C(c1ccccc1)C(SSN1CCOCC1)C(=O)c1ccccc1`, the T/C is 91 % of control under setting [16], 100 % of control under setting [12] and 106 % of control under setting [13].

Regarding `C/C=C/C1OC(=O)C=C1Sc1ccccc1` (stereo unspecified), the T/C is, setting by setting: under setting [1], 114 % of control; under setting [2], 117 % of control; under setting [10], 114 % of control.

On to `OCC1OC(n2cnc3c(NCc4ccco4)ncnc32)C(O)C1O` (stereo unspecified), for which the T/C is, setting by setting: under setting [16], 111 % of control; under setting [12], 93 % of control; under setting [13], 118 % of control.

`C=CCNC(=S)N/N=C(C)/C=C/c1ccc(OC)cc1`: the T/C is 100 % of control under setting [14], 96 % of control under setting [15] and 88 % of control under setting [17].

For the molecule `CCOC(=O)C1=C(c2ccccc2)OC(N)=C(C#N)C1c1ccccc1Cl` (stereo unspecified), the T/C was 96 % of control under setting [14], 105 % of control under setting [15] and 107 % of control under setting [17].

As to `COC(=O)N1[C@@H]2C=CC=CC=C2[C@@H](OC)N1C(=O)OC`, the T/C by setting is: under setting [1], 101 % of control; under setting [2], 103 % of control; under setting [10], 103 % of control.

`ON=C(C(Cl)(Cl)Cl)C(Cl)(Cl)Cl`: the T/C is, setting by setting: under setting [3], 100 % of control; under setting [4], 100 % of control; under setting [5], 97 % of control.

As for `Nc1cnccc1Nc1ccncc1`, the T/C is 95 % of control (dose: 50.0 mg/kg/injection, schedule: Q01DX001 (ip), vehicle: saline with Tween-80) and 100 % of control (dose: 100.0 mg/kg/injection, schedule: Q01DX001 (ip), vehicle: saline with Tween-80).

For the origin of these results see PubChem BioAssay AID330 (DTP/NCI, 2004).
